Test results published in US20130102595A1 (Curis, Inc., priority 2011, published 2013).

What was measured:
[1] = target: T1, PI3Kγ (p120γ) (Homo sapiens, UniProt P48736); experiment: PI3Kγ ADP-Glo assay; format: biochemical; details: 20 μM PIP2, 10 μM ATP, 90 minutes
T1 construct: His (N); made in house; host or cells: Baculovirus-infected Sf9 cells
Protocol: (d) an In Vitro Assay which Determines the Ability of a Test Compound to Inhibit PI3Kγ.
(§1) Activity of PI3Kγ was measured using ADP-Glo assay from Promega. PI3Kγ, N-terminal His-tagged recombinant full-length human p120γ (GenBank, Accession No. AF327656) was expressed in a Baculovirus infected Sf9 cell expression system. The ADP-Glo assay was performed to measure the amount of ADP generated from ATP hydrolysis coupled with PIP2 phosphorylation by the purified recombinant PI3Kγ (p110δ/p85α). PI3Kγ was incubated with 20 μM PIP2 substrate in the reaction buffer (10 mM Tris-HCl, pH 7.5, 50 mM NaCl, 5 mM MgCl2, 10 μM ATP and 0.5% DMSO) for 90 minutes at room temperature. The ADP generated was then detected by ADP-Glo assay from Promega, a luminescent ADP detection assay. The ADP-Glo assay is performed in two steps; first, after the kinase reaction, ADP-Glo Reagent is added to terminate the kinase reaction and deplete the remaining ATP. Second, the Kinase Detection Reagent is added to simultaneously convert ADP to ATP and allow the newly synthesized ATP to be measured using a luciferase/luciferin reaction.

[2] = target: T2, PI3Kδ (p110δ/p85α) (Homo sapiens, UniProt O00329); experiment: PI3Kδ ADP-Glo assay; format: biochemical; details: 20 μM PIP2, 10 μM ATP, 90 minutes
T2 construct: GST (N); made in house; host or cells: Baculovirus-infected Sf9 cells
Protocol: (c) an In Vitro Assay which Determines the Ability of a Test Compound to Inhibit PI3Kδ.
as §1, with “PI3Kδ” for “PI3Kγ”, “PI3Kδ, a complex of” for “PI3Kγ,”, “GST-tagged” for “His-tagged”, “p110δ” for “p120γ”, “NM_005026) and untagged recombinant full length human p85α (GenBank Accession No. XM—043865) were co-expressed” for “AF327656) was expressed”

[3] = target: T3, mTor serine/threonine protein kinase (Homo sapiens, UniProt P42345); experiment: mTor kinase radioisotope assay; format: biochemical; details: 70 uM ATP, 40 minutes; read-out: m-TOR IC50
T3 construct: FLAG; made in house; host or cells: Baculovirus expression system in Sf21 cells
Method in brief: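 FLAG-tagged full-length recombinant human mTor from baculovirus/Sf21, incubated with p70S6K C-terminal fragment (2 mg/ml) and 70 uM ATP plus 33P-ATP tracer in 50 mM HEPES pH 7.5, 3 mM MnCl2, 40 min at room temperature. Phosphoric acid stop, filtermat capture, scintillation counting; IC50 from sigmoidal dose-response fit.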

[4] = target: T4, PI3Kα (p110α/p85α) (Homo sapiens, UniProt P42336); experiment: PI3Kα ADP-Glo assay; format: biochemical; details: 20 μM PIP2, 10 μM ATP, 30 minutes
T4 construct: GST (N); made in house; host or cells: Baculovirus-infected Sf9 cells
Method in brief: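 Luminescent ADP-Glo detection, after depletion of residual ATP, quantified ADP made by PI3Kα phosphorylating 20 μM PIP2 at 10 μM ATP. The kinase step ran 30 min at room temperature in HEPES pH 7.4 with MgCl2, DTT and orthovanadate, using baculovirus/Sf9-expressed full-length p110α/p85α complex.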

[5] = system: HDACs (HeLa cell nuclear extracts); experiment: HDAC enzymatic activity, Biomol Color de Lys system; format: biochemical; details: 1 hour, 25° C.
Method in brief: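 IC50 from sigmoidal fit of developer-terminated fluorescence (ex 350-380/em 440-460 nm). Reaction: 1 h at room temperature (25 °C), HeLa nuclear extract as HDAC source, artificial substrate, buffer of 50 mM Tris/Cl pH 8.0 with 137 mM NaCl, 2.7 mM KCl and 1 mM MgCl2.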

[6] = target: T5, PI3Kβ (p110β/p85α) (Homo sapiens, UniProt P42338); experiment: PI3Kβ ADP-Glo assay; format: biochemical; details: 20 μM PIP2, 10 μM ATP, 90 minutes
T5 construct: His (N); made in house; host or cells: Baculovirus-infected Sf9 cells
Protocol: (B) an In Vitro Assay which Determines the Ability of a Test Compound to Inhibit PI3Kβ.
as §1, with “PI3Kβ” for “PI3Kγ”, “[…], a complex of” for “PI3Kγ,”, “p110β” for “p120γ”, “NM_006219) and untagged recombinant full length human p85α (GenBank Accession No. XM—043865) were co-expressed” for “AF327656) was expressed”, “PI3Kβ (p110β/p85α). PI3Kβ” for “PI3Kγ (p110δ/p85α). PI3Kγ”

[7] = system: MiaPaca1; experiment: Cell proliferation assay (CellTiter-Glo); format: cell-based; details: Pancreas; 72 hours, 0.5% fetal bovine serum; read-out: antiproliferative activity IC50, MiaPaca1
Method in brief: (§2)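 Luminescent ATP quantitation after 30 minutes of lysis served as the growth-inhibition read-out. Before this, cells (5,000 to 10,000 per well) were incubated for 72 hours with varying compound concentrations under low-serum conditions (0.5% fetal bovine serum).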

[8] = system: SW620; experiment: Cell proliferation assay (CellTiter-Glo); format: cell-based; details: Homo sapiens, SW-620; Colon; 72 hours, 0.5% fetal bovine serum; read-out: antiproliferative activity IC50, SW620
Method in brief: as §2

[9] = system: H292; experiment: Cell proliferation assay (CellTiter-Glo); format: cell-based; details: Homo sapiens, NCI-H292; NSCLC; 72 hours, 0.5% fetal bovine serum; read-out: antiproliferative activity IC50, H292
Method in brief: as §2

[10] = system: CFPAC-1; experiment: Cell proliferation assay (CellTiter-Glo); format: cell-based; details: Homo sapiens, Pancreas, 72 hours, 0.5% fetal bovine serum, read-out: antiproliferative activity IC50, CFPAC-1
Method in brief: as §2

[11] = system: OPM-2; experiment: Cell proliferation assay (CellTiter-Glo); format: cell-based; details: Homo sapiens, Multiple Myeloma, 72 hours, 0.5% fetal bovine serum, read-out: antiproliferative activity IC50, OPM-2
Method in brief: as §2

[12] = system: SW403; experiment: Cell proliferation assay (CellTiter-Glo); format: cell-based; details: Homo sapiens, SW-403; Colon; 72 hours, 0.5% fetal bovine serum; read-out: antiproliferative activity IC50, SW403
Method in brief: as §2

[13] = system: A549; experiment: Cell proliferation assay (CellTiter-Glo); format: cell-based; details: Homo sapiens, NSCLC, 72 hours, 0.5% fetal bovine serum, read-out: antiproliferative activity IC50, A549
Method in brief: as §2

[14] = system: Calu6; experiment: Cell proliferation assay (CellTiter-Glo); format: cell-based; details: Homo sapiens, Calu-6; NSCLC; 72 hours, 0.5% fetal bovine serum; read-out: antiproliferative activity IC50, Calu6
Method in brief: as §2

[15] = system: SW1990; experiment: Cell proliferation assay (CellTiter-Glo); format: cell-based; details: Homo sapiens, Pancreas, 72 hours, 0.5% fetal bovine serum, read-out: antiproliferative activity IC50, SW1990
Method in brief: as §2

[16] = system: H460; experiment: Cell proliferation assay (CellTiter-Glo); format: cell-based; details: Homo sapiens, NCI-H460; NSCLC; 72 hours, 0.5% fetal bovine serum; read-out: antiproliferative activity IC50, H460
Method in brief: as §2

[17] = system: WiDr; experiment: Cell proliferation assay (CellTiter-Glo); format: cell-based; details: Homo sapiens, Colon, 72 hours, 0.5% fetal bovine serum, read-out: antiproliferative activity IC50, WiDr
Method in brief: as §2

[18] = system: CaPan2; experiment: Cell proliferation assay (CellTiter-Glo); format: cell-based; details: Homo sapiens, Capan-2; Pancreas; 72 hours, 0.5% fetal bovine serum; read-out: antiproliferative activity IC50, CaPan2
Method in brief: as §2

[19] = system: H2122; experiment: Cell proliferation assay (CellTiter-Glo); format: cell-based; details: Homo sapiens, NCI-H2122; NSCLC; 72 hours, 0.5% fetal bovine serum; read-out: antiproliferative activity IC50, H2122
Method in brief: as §2

[20] = system: PANC-1; experiment: Cell proliferation assay (CellTiter-Glo); format: cell-based; details: Homo sapiens, Pancreas, 72 hours, 0.5% fetal bovine serum, read-out: antiproliferative activity IC50, PANC-1
Method in brief: as §2

[21] = system: H358; experiment: Cell proliferation assay (CellTiter-Glo); format: cell-based; details: Homo sapiens, NCI-H358; NSCLC; 72 hours, 0.5% fetal bovine serum; read-out: antiproliferative activity IC50, H358
Method in brief: as §2

[22] = system: HCT116; experiment: Cell proliferation assay (CellTiter-Glo); format: cell-based; details: Homo sapiens, HCT-116; Colon; 72 hours, 0.5% fetal bovine serum; read-out: antiproliferative activity IC50, HCT116
Method in brief: as §2

[23] = system: SWI-116; experiment: Cell proliferation assay (CellTiter-Glo); format: cell-based; details: Colon; 72 hours, 0.5% fetal bovine serum; read-out: antiproliferative activity IC50, SWI-116
Method in brief: as §2

[24] = system: T-84; experiment: Cell proliferation assay (CellTiter-Glo); format: cell-based; details: Homo sapiens, T84; Colon; 72 hours, 0.5% fetal bovine serum; read-out: antiproliferative activity IC50, T-84
Method in brief: as §2

[25] = system: glioblastoma xenografts; details: oral dosage; cited from earlier work
[26] = system: MDA-MB-231; experiment: Cell proliferation assay (CellTiter-Glo); format: cell-based; details: Homo sapiens, Breast, 72 hours, 0.5% fetal bovine serum, read-out: antiproliferative activity IC50, MDA-MB-231
Method in brief: as §2

[27] = system: CaPan1; experiment: Cell proliferation assay (CellTiter-Glo); format: cell-based; details: Homo sapiens, CAPAN-1; Pancreas; 72 hours, 0.5% fetal bovine serum; read-out: antiproliferative activity IC50, CaPan1
Method in brief: as §2

[28] = system: LN-Cap; experiment: Cell proliferation assay (CellTiter-Glo); format: cell-based; details: Homo sapiens, LNCaP; Prostate; 72 hours, 0.5% fetal bovine serum; read-out: antiproliferative activity IC50, LN-Cap
Method in brief: as §2

[29] = system: PC-3; experiment: Cell proliferation assay (CellTiter-Glo); format: cell-based; details: Homo sapiens, Prostate, 72 hours, 0.5% fetal bovine serum, read-out: antiproliferative activity IC50, PC-3
Method in brief: as §2

[30] = system: OVCAR-5; experiment: Cell proliferation assay (CellTiter-Glo); format: cell-based; details: Homo sapiens, Ovarian, 72 hours, 0.5% fetal bovine serum, read-out: antiproliferative activity IC50, OVCAR-5
Method in brief: as §2

T1 sequence (P48736 whole entry): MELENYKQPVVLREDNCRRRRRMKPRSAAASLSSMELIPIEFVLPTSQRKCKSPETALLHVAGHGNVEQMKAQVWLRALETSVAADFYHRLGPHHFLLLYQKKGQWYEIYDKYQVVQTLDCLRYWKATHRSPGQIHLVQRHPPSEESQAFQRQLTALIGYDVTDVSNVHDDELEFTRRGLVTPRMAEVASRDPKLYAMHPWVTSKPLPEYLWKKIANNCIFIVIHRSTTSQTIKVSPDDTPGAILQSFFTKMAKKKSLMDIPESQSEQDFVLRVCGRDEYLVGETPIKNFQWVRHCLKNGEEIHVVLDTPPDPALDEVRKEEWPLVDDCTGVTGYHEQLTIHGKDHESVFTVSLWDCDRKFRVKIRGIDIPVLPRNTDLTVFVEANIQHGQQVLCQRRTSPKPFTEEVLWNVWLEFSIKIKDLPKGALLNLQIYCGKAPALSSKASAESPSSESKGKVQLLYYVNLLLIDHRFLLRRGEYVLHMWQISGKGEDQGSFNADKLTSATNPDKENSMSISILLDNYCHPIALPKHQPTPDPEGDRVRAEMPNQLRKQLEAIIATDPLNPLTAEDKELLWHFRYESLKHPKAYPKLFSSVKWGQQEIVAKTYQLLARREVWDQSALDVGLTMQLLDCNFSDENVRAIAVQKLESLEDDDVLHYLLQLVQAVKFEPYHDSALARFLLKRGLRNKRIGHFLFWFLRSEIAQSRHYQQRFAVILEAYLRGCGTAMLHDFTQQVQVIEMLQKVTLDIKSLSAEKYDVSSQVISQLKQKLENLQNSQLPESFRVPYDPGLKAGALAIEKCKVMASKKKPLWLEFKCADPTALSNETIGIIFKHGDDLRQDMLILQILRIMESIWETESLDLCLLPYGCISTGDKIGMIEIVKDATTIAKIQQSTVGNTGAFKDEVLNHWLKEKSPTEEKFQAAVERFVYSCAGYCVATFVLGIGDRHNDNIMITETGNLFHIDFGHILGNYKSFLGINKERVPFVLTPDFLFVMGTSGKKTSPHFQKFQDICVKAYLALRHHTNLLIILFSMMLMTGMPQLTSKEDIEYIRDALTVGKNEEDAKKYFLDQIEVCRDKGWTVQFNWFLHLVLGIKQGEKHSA
T4 sequence (P42336 whole entry): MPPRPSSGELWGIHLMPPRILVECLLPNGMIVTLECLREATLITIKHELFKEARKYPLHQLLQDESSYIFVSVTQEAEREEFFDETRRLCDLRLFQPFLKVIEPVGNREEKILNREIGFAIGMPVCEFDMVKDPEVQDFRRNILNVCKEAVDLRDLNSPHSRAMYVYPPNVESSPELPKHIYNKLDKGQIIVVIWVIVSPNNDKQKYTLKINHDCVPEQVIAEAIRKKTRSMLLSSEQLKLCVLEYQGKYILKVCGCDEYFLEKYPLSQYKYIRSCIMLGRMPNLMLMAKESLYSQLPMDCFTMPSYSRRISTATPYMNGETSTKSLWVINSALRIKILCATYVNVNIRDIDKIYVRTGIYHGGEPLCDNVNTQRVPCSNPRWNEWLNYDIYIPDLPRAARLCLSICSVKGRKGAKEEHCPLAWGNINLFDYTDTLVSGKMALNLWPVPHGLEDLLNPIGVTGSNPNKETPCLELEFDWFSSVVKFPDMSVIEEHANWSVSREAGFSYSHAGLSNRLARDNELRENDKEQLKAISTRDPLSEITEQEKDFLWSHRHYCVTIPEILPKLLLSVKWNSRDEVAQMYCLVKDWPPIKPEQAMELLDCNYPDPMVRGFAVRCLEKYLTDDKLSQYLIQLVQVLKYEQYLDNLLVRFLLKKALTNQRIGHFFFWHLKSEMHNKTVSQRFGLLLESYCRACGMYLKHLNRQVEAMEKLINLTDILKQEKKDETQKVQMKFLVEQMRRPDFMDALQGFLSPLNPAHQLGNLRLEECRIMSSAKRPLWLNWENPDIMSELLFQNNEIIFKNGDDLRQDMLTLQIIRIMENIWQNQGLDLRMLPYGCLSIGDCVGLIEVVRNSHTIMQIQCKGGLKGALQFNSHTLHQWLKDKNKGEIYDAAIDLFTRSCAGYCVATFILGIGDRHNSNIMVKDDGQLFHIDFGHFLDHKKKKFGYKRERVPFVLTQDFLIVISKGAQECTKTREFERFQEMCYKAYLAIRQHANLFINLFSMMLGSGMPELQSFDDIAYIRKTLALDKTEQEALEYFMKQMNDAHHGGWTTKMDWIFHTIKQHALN
T4 sequence (P27986 whole entry partner): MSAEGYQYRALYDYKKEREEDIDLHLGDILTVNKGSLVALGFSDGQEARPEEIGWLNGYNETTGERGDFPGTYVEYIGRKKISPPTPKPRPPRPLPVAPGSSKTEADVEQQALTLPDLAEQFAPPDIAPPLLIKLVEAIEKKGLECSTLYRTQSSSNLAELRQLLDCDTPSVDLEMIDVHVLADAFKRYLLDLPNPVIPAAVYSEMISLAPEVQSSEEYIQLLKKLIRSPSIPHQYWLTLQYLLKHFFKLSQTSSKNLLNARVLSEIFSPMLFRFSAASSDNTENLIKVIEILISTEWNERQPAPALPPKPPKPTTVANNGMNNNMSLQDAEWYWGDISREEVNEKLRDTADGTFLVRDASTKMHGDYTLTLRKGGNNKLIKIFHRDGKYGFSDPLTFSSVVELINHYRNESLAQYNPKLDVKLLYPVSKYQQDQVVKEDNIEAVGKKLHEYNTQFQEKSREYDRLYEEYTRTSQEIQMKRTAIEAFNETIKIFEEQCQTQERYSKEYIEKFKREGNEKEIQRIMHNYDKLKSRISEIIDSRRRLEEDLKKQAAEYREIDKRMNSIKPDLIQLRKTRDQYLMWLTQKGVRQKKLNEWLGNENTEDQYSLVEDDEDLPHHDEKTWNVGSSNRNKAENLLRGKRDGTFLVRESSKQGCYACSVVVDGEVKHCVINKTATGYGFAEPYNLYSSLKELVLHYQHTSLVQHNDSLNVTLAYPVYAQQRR
T5 sequence (P42338 whole entry): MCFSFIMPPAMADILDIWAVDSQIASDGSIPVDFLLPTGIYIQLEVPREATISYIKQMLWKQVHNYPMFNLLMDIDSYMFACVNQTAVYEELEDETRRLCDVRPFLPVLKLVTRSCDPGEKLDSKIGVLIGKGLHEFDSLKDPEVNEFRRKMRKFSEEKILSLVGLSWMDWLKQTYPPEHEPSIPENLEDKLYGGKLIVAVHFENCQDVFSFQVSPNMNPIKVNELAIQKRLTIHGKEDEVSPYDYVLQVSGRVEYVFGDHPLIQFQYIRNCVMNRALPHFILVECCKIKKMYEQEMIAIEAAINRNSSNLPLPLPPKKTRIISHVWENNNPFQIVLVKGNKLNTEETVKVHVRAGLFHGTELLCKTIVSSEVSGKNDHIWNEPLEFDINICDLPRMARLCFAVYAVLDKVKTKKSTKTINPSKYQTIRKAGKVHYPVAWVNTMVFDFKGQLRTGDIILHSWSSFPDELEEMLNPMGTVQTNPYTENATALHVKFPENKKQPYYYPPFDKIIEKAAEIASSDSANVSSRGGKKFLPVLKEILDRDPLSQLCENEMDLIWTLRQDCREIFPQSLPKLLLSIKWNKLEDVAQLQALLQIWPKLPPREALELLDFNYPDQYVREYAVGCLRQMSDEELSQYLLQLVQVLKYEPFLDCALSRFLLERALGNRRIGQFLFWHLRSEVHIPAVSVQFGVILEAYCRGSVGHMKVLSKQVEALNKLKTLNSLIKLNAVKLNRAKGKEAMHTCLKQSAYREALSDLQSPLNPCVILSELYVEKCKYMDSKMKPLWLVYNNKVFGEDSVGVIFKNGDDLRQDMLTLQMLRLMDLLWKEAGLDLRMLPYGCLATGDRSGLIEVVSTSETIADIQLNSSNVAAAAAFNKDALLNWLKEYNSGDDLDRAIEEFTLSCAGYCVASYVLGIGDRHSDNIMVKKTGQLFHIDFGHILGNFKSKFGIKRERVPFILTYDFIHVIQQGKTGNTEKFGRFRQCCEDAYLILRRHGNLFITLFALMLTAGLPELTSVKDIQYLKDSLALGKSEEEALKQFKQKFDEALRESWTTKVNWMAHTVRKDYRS
T5 sequence (P27986 whole entry partner): as the sequence (P27986 whole entry partner) above
T2 sequence (O00329 whole entry): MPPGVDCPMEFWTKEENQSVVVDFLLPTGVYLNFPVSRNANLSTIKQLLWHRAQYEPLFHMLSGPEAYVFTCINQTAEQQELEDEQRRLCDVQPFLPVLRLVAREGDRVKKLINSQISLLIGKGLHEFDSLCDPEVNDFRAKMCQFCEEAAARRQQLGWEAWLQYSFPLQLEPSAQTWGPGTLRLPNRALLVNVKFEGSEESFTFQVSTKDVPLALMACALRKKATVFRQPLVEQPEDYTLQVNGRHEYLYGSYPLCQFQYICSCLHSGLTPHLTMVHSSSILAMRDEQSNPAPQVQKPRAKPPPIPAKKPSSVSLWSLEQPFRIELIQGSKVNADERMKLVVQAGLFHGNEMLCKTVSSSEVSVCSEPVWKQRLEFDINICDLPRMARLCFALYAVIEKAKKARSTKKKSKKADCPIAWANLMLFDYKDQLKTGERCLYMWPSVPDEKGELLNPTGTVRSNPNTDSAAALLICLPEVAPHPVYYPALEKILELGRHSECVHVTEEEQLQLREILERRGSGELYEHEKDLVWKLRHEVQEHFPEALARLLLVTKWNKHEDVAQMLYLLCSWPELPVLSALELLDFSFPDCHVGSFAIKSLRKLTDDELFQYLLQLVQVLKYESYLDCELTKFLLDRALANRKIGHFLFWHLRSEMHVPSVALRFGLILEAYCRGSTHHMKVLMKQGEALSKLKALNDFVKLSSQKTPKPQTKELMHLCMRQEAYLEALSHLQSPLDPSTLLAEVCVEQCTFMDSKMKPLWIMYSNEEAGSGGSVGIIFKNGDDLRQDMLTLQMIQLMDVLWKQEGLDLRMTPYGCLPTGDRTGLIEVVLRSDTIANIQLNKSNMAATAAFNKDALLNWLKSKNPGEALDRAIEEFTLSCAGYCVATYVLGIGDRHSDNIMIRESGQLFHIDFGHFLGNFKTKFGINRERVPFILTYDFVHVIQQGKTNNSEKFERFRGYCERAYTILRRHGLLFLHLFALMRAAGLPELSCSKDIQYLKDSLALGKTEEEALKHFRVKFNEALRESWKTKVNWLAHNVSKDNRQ
T2 sequence (P27986 whole entry partner): as the sequence (P27986 whole entry partner) above

melting point | IC50 [1] | IC50 [2] | IC50 [4] | IC50 [5] | IC50 [6] | Compound | IC50 [3] | IC50 [7] | IC50 [8] | IC50 [9] | IC50 [10] | IC50 [11] | IC50 [12] | IC50 [13] | IC50 [14] | IC50 [15] | IC50 [16] | IC50 [17] | IC50 [18] | IC50 [19] | also measured
209 to 221 °C | < 100 nM | 100 to 1000 nM | < 100 nM | < 100 nM | < 100 nM | O=C(NO)c1cnc(N2CCN(Cc3cc4nc(-c5cccc6[nH]ncc56)nc(N5CCOCC5)c4s3)CC2)nc1 [Compound 14] | 1000 to 10000 nM | – | – | – | – | – | – | – | – | – | – | – | – | – | –
234 to 237 °C | < 100 nM | < 100 nM | < 100 nM | < 100 nM | < 100 nM | O=C(NO)c1cnc(NCc2cc3nc(-c4cccc5[nH]ncc45)nc(N4CCOCC4)c3s2)nc1 [Compound 53, 2-((2-(1H-indazol-4-yl)-4-morpholinothieno[3,2-d]pyrimidin-6-yl)methylamino)-N-hydroxypyrimidine-5-carboxamide] | – | – | – | – | – | – | – | – | – | – | – | – | – | – | –
– | – | – | – | – | – | CS(=O)(=O)N1CCN(Cc2cc3nc(-c4cccc5[nH]ncc45)nc(N4CCOCC4)c3s2)CC1 [GDC-0941, reference compound] | – | 1000 to 10000 nM | 100 to 1000 nM | 1000 to 10000 nM | 1000 to 10000 nM | 100 to 1000 nM | 1000 to 10000 nM | 100 to 1000 nM | 1000 to 10000 nM | 1000 to 10000 nM | 100 to 1000 nM | 100 to 1000 nM | 1000 to 10000 nM | 1000 to 10000 nM | effect in glioblastoma xenografts in vivo [25]: tumor suppression; IC50 [26]: > 10000 nM; IC50 [27]: 1000 to 10000 nM; IC50 [28]: 100 to 1000 nM; IC50 [29]: 1000 to 10000 nM; IC50 [30]: 100 to 1000 nM; IC50 [20]: 1000 to 10000 nM; IC50 [21]: 1000 to 10000 nM; IC50 [22]: 100 to 1000 nM; IC50 [23]: 100 to 1000 nM; IC50 [24]: 1000 to 10000 nM

Compound | melting point | IC50 [1] | IC50 [2] | IC50 [4] | IC50 [5] | IC50 [6] | IC50 [3] | IC50 [7] | IC50 [8] | IC50 [9] | IC50 [10] | IC50 [11] | IC50 [12] | IC50 [13] | IC50 [14] | IC50 [15] | IC50 [16] | IC50 [17] | IC50 [18] | IC50 [19] | also measured
COc1ccc(-c2nc(N3CCOCC3)c3sc(CN(C)c4ncc(C(=O)NO)cn4)cc3n2)cn1 [Compound 236, N-Hydroxy-2-(((2-(6-methoxypyridin-3-yl)-4-morpholinothieno[3,2-d]pyrimidin-6-yl)methyl)(methyl)amino)pyrimidine-5-carboxamide] | – | – | – | – | < 100 nM | – | 1000 to 10000 nM | 10 to 100 nM | < 10 nM | < 10 nM | 10 to 100 nM | < 10 nM | < 10 nM | 10 to 100 nM | 10 to 100 nM | < 10 nM | 10 to 100 nM | 10 to 100 nM | 10 to 100 nM | < 10 nM | IC50 [20]: 10 to 100 nM; IC50 [21]: < 10 nM; IC50 [22]: < 10 nM; IC50 [23]: < 10 nM; IC50 [24]: 10 to 100 nM
